# Laboratory results from PMC9967152 (International Journal of Molecular Sciences, 2023).
# Where a SMILES comes first, the peptide text is derived from it. [ ]: non-standard residue; d: D form. The star is where a group is joined. Daunorubicin(13-NOCH2CO) = COc1cccc2c1C(=O)c1c(O)c3c(c(O)c1C2=O)C[C@@](O)(C(C)=NOCC(=O)*)C[C@@H]3O[C@H]1C[C@H](N)[C@H](O)[C@H](C)O1; Nle = CCCC[C@H](N)C(=O)O
# Columns and labels:
# [1] = system: MDA-MB-231 human breast adenocarcinoma cells; test: MTT assay, in vitro cytostatic effect; assay type: cell-based; conditions: Homo sapiens, MDA-MB-231, 24 h treatment at 3.125–25 µM, then cultured up to 72 h, mean ± SD, n = 2 independent experiments with four parallels
# Procedure: (§1) Cells were distributed into 96-well tissue culture plates with an initial cell number of 5.0 × 10^3 per well. After 24 h incubation at 37 °C, the cells were treated with the compounds in 200 µL final volume containing 1.0 v/v% DMSO and 10% H2O. […] After incubation, the cells were washed twice with a serum-free medium. To determine the in vitro cytostatic effect, the cells were further cultured up to 72 h in a 10% serum-containing medium. A solution of 3-(4,5-dimethylthiazol-2-yl)-2,5-diphenyltetrazolium bromide and MTT-solution, (45 µL, 2 mg/mL, final concentration: […]) were added to each well. The respiratory chain [67] and other electron transport systems reduce MTT, and thereby form non-water-soluble violet formazan crystals within the cell. […] After 3 h of incubation, the cells were centrifuged for 5 min at 1000 g and the supernatant was removed. The obtained formazan crystals were dissolved in DMSO (100 μL) and the optical density (OD) of the samples was measured at λ = 540 and 620 nm, respectively, using ELISA Reader (iEMS Reader, Labsystems, Finland). OD620 values were subtracted from OD540 values. The percentage of cytostasis was calculated by using the following equation:Cytostatic effect (%) = [1 − (ODtreated/ODcontrol)] × 100(1)
# (§2) Values of ODtreated and ODcontrol correspond to the optical densities of the treated and the control cells, respectively. In each case, two independent experiments were carried out with four parallel measurements. The 50% inhibitory concentration (IC50) values were determined from the dose–response curves. The curves were defined using Microcal™ Origin 2018 software: cytostasis was plotted as a function of concentration, fitted to a sigmoidal curve, and based on this curve, the half-maximal inhibitory concentration (IC50) value was determined. IC50 represents the concentration of a compound that is required for 50% inhibition in vitro and is expressed in micromolar units.
# [2] = system: MDA-MB-453 human metastatic epithelial breast carcinoma cells; test: MTT assay, in vitro cytostatic effect; assay type: cell-based; conditions: Homo sapiens, MDA-MB-453, 24 h treatment at 3.125–25 µM, then cultured up to 72 h, mean ± SD, n = 2 independent experiments with four parallels
# Procedure: as §1, §2
# [3] = system: PC-3 human prostate adenocarcinoma cells; test: MTT assay, in vitro cytostatic effect; assay type: cell-based; conditions: Homo sapiens, 24 h treatment at 3.125–25 µM, then cultured up to 72 h, mean ± SD, n = 2 independent experiments with four parallels
# Procedure: as §1, §2
# MRC-5 human fibroblasts = test: Toxicity on non-cancerous cells (dose-response curves); assay type: cell-based; conditions: Figure S15
# Description: The lack of toxicity of the conjugates on healthy cells was checked on MRC-5 human fibroblasts, proving that they are non-toxic on non-cancerous cells (see Supplementary Materials, Figure S15).
# Figure S15. Dose-response curves of the PDCs and Dau on MRC-5 human fibroblast cell line. Only […]
# Figure S16. Flow cytometry measurements for the uptake of all the PDCs on MDA-MB-231 (A), MDA-MB-453 (B) and PC-3 (C) human cancer cell lines. The percentage of cells containing the Dau-conjugates was evaluated on four concentrations (%, mean ± SD, n= 2). Given that above 12.5 µM the internalisation may not only be receptor-mediated, this concentration was considered to com-pare the uptake of the bioconjugates. […]
# [4] = system: PC-3 human prostatic adenocarcinoma xenograft in NOD-SCID mice; test: In vivo tumour growth inhibition, subcutaneous PC-3 xenograft; design: species or system mouse; conditions: free drug 1 mg/kg, two treatments, n = 8
# Procedure: The testing of the antitumour conjugates was carried out in a murine xenograft model. It was established by inoculating subcutaneously 100 µL of cell suspension of PC-3 prostate cancer cells with a concentration of 2 × 10^7 cells/mL.
# Once the tumour volume reached 60 mm^3, mice were randomised and assigned to different groups for each treatment, respectively 0.9% saline as control, free daunorubicin, L5, and L6. Each group consisted of eight mice. Peptide–drug conjugates were injected intraperitoneally every 5th day, five times in total (daunorubicin dosage of 10 mg/kg for each treatment). In the case of free daunorubicin, two treatments were administered at the same time points as the first two treatments with conjugates, with a dosage of 1 mg/kg, the maximum tolerated dose (MTD). Weight and tumour size of mice were monitored throughout the whole experiment, two times per week. On day 33, mice were euthanized, and primary tumour, heart, lung, liver and spleen were harvested and stored in 4% formalin (Molar Chemicals, Halásztelek, Hungary). After 2–3 days of incubation in formalin, tissue samples were examined macroscopically. Organs and primary tumours from the different treatment groups were weighed and inspected under a stereomicroscope to see any occurrent changes in morphology compared to the controls.
# mice = conditions: mouse experimental model; cited from earlier work
# Procedure: Before testing the effect of our newly developed PDCs on tumour growth in vivo, we performed a chronic toxicity study to determine the ideal dosage of the compounds. Administration of daunorubicin is shown to cause severe cardiotoxic side effects, therefore, its maximum tolerated dose is 1 mg/kg in the case of our experimental model. However, when conjugated to targeting moieties, its side effects can be reduced; moreover, its tumour inhibition capabilities can be increased.
# [5] = Metabolism in rat liver lysosomal homogenate; assay type: in vitro ADME; conditions: 0.2 M NaOAc pH 5.05, 37 °C, conjugate–lysosomal protein 1:10 (w/w), HPLC-MS, triplicates
# Procedure: All the conjugates contain a cathepsin B cleavable spacer, either GFLG or LRRY, to allow the release of the toxic payload in lysosomes after receptor-mediated internalisation. We explored the metabolism of L1, L3, L5 and L6 in rat liver lysosomal homogenate to mimic this situation. The experiment was performed over 72 h, sampling at 0 min, 15 min, 30 min, 1 h, 2 h, 6 h, 24 h and 72 h in triplicates. All the (Dau=Aoa-LRRY)–BBN (7-14) conjugates have a similar degradation profile and they quickly release the active metabolite Dau=Aoa-Leu-OH, which can be detected after 15 min (Figure 3). […] Its signal cannot be detected anymore already after 1 h.
# The rat liver lysosomal homogenate was prepared based on our previously published procedure, with small modifications: livers from two male Wistar rats (32.6 g and 41.2 g, respectively) were collected, minced with a knife and homogenised in two volumes of ice-cold 0.3 M sucrose, using a T25 Ultra Turrax homogenizer (∼100 mL). […] The protein concentration was determined by measuring the absorbance at 260 nm and 280 nm, and was calculated using the formula: Concentration (μg/μL) = 1.55 ∗ A280 − 0.76 ∗ A260; it was determined as 71.76 μg/μL. […]
# The conjugates (2.5 μg/μL in DMSO, 5 μL) were diluted with 0.2 M NaOAc solution (pH 5.05, 495 μL) to 0.025 μg/μL. […] The composition of the samples was determined by HPLC-MS.
# [6] = Stability in incomplete (serum-free) DMEM; assay type: in vitro ADME; conditions: 25 µM, 37 °C, 600 rpm, LC–MS, n = 2
# Procedure: The conjugates were incubated in incomplete DMEM for 3 h (similarly to the internalisation studies) or in 2.5% FBS containing DMEM for 24 h (conditions for the MTT assay). […] No significant loss of L1 and L5 (<20%) or L6 (<30%) was observed after 3 h (see Supplementary Materials, Figure S17).
# DMSO stock solutions of the conjugates (2.5 mM) were diluted in DMEM free from or containing 2.5% FBS, to a final concentration of 25 μM. The mixture was incubated and stirred at 37 °C, 600 rpm, and 30 µL aliquots were collected after 0 min, 0.5, 1, 2, 4, 8 and 24 h, in duplicates. Then, to each sample, 90 µL of 0.1% formic acid containing MeCN was added and the samples were frozen at −25 °C for ≥30 min to aid protein precipitation. Large FBS components were removed by centrifugation (15 min, 5000 g, 4 °C). Aliquots of 50 µL supernatant were diluted with an equal volume of ddH2O + 0.1% formic acid and analysed by LC–MS. Control measurements were performed in the same manner (25 μM bioconjugate in 100% ddH2O).
# [7] = Stability in mouse plasma; assay type: in vitro ADME; conditions: 37 °C, HPLC-MS
# Procedure: Due to their low IC50 values and internalisation on the tested cell lines, conjugates L1, L5 and L6 were chosen for investigation of their stability in mouse plasma, as potential candidates for in vivo studies. They were incubated at a concentration of 10 µM, with mouse plasma for 24 h at 37 °C. Samples were collected at 0 h, 30 min, 1 h, 2 h, 4 h, 8 h and 24 h and analysed by HPLC-MS. […] Furthermore, after 2 h, L1 starts to release the toxic metabolite Dau=Aoa-Leu-OH, whereas this happens only after 24 h for L5 and L6, in a considerably low amount (see Supplementary Materials, Figures S18–S20).
# The conjugates were dissolved in ddH2O containing 10% DMSO (stock solution: 100 μM) and diluted with mouse plasma to a final concentration of 10 μM. The mixture was incubated and stirred at 37 °C, 600 rpm, and 30 µL aliquots were collected after 0 min, 0.5, 1, 2, 4, 8 and 24 h, in triplicates. Then, to each plasma sample, 90 µL of 0.1% formic acid containing MeCN was added, and the samples were frozen at −25 °C for ≥30 min to aid protein precipitation. Large plasma proteins were removed by centrifugation (15 min, 5000× g, 4 °C). Aliquots of 50 µL supernatant were diluted with an equal volume of ddH2O + 0.1% formic acid and analysed by LC–MS. Control measurements were performed in the same manner (10 μM bioconjugate in 100% ddH2O).
SMILES,IC50 [1],IC50 [2],IC50 [3],Toxicity on MRC-5 human fibroblasts (MRC-5 human fibroblasts),Day at which fitness of mice decreased to a critical state [4],Effect on tumour growth [4],Maximum tolerated dose (mice),Time after which the signal of the intact conjugate cannot be detected anymore [5],Loss of conjugate after 3 h [6],"Time after which release of the toxic metabolite Dau=Aoa-Leu-OH starts ([7]; 10 µM, for L5 and L6 in a considerably low amount)","remaining at 8 h, 10 μM ([7]; 600 rpm, n = 3, read-out: Detected fraction after 8 h)","half-life at 10 μM ([7]; 600 rpm, n = 3, read-out: t1/2 in mouse plasma (converted))",time to release of active metabolite Dau=Aoa-Leu-OH
"COc1cccc2c1C(=O)c1c(O)c3c(c(O)c1C2=O)C[C@@](O)(C(C)=O)C[C@@H]3O[C@H]1C[C@H](N)[C@H](O)[C@H](C)O1 [Dau, daunorubicin, reference compound]",900 ± 60 nM,810 ± 70 nM,750 ± 10 nM,reveals toxicity,26 days,did not significantly reduce tumour growth,1 mg/kg,,,,,,
"CCCC[C@H](NC(=O)[C@H](CC(C)C)NC(=O)[C@H](Cc1c[nH]cn1)NC(=O)CNC(=O)[C@@H](NC(=O)[C@H](C)NC(=O)[C@H](Cc1c[nH]c2ccccc12)NC(=O)[C@H](CCC(N)=O)NC(=O)[C@H](Cc1ccc(O)cc1)NC(=O)[C@H](CCCNC(=N)N)NC(=O)[C@H](CCCNC(=N)N)NC(=O)[C@H](CC(C)C)NC(=O)CON=C(C)[C@]1(O)Cc2c(O)c3c(c(O)c2[C@@H](O[C@H]2C[C@H](N)[C@H](O)[C@H](C)O2)C1)C(=O)c1c(OC)cccc1C3=O)C(C)C)C(N)=O [L1, (Dau=Aoa)-LRRY-BBN(7-14)[Nle14]] ({Daunorubicin(13-NOCH2CO)}-LRRYQWAVGHL[Nle]-NH2)",,,,,,,,≤ 1 h,< 20%,2 h,20%,228 min,< 30 min
